Experiments:
GR [1] = target: T1, GR (Homo sapiens, UniProt P04150); assay: GR luciferase reporter assay in HEK293/GRLuc cells; format: cell-based; conditions: for EC50: 48 hours
T1 construct: host or cells: HEK293 (HEK293/GRLuc; HEK293/GRLuc/MSR1 additionally transduced with human MSR1)
T1 sequence (P04150 524-758 limits assumed): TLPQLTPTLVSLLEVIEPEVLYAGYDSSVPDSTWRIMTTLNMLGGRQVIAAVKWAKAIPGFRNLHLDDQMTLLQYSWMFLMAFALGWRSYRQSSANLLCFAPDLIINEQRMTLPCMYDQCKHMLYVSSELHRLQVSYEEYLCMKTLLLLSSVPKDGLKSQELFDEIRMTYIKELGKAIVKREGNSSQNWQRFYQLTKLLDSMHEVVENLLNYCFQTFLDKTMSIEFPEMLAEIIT
Method: (§1) Activity of anti-MSR1 ncADCs were tested using an MSR1 ADC steroid responsive luciferase reporter assay. To generate the assay cell line, HEK293 cells were co-transfected with the pBind-GR (Promega, Cat #E158A) and pGL4.35 [Luc2P/9xGAL4UAS/Hygro] (Promega, Cat #E137A) vectors. The pBind-GR vector expresses a fusion protein consisting of the GR ligand binding and the yeast Gal4DNA-binding domain, which binds to the Gal4 upstream activation sequence (UAS) in the luciferase expression vector, that can induce luciferase expression following GR agonist binding. The cells were selected for at least 2 weeks in G418+hygromycin and the resulting cell line is referred to as HEK293/GRLuc. HEK293/GRLuc cells were then transduced with a human MSR1 lentiviral expression vector and 48 hours later cells were sorted for MSR1 positive cells. The resulting cell line is referred to as HEK293/GRLuc/MSR1.
(§2) Three-fold serial dilutions of ncADCs in assay buffer were added to the cells for 48 hours. The last well in the plate served as blank control containing only the assay media and was plotted as a continuation of the 3-fold serial dilution. Luciferase activity was determined using the One-Glo™ reagent (Promega, Cat #E6130). Relative light units (RLUs) were measured on an Envision luminometer (PerkinElmer) and EC50 values were determined using a four-parameter logistic equation over a 10-point dose response curve (GraphPad Prism). The signal to noise (S/N) was determined by taking the ratio of the highest RLU on the dose response curve to the RLU in the untreated wells.
(§3) To test the activity of GR agonist payloads disclosed herein, a cell-based GR responsive luciferase reporter assay was developed as described above.
(§4) Three-fold serial dilutions of free payloads were prepared in 100% DMSO, transferred to fresh assay media, and added to the cells for 48 hours. […] The last well in the plate served as blank control containing only the assay media and 0.2% DMSO (untreated well) and was plotted as a continuation of the 3-fold serial dilution. Luciferase activity was determined using the One-Glo™ reagent (Promega, Cat #E6130). Relative light units (RLUs) were measured on an Envision luminometer (PerkinElmer) and EC50 values were determined using a four-parameter logistic equation over a 10-point dose response curve (GraphPad Prism). The signal to noise (S/N) was determined by taking the ratio of the highest RLU on the dose response curve to the RLU in the untreated wells.

[2] = Metabolic stability with human liver microsomes; format: in vitro ADME; conditions: for Percent Remaining (%): Mean; for CLint scaled / half-life: human
Method: The metabolic stability of payload PIII-1 incubated with human liver microsomes was evaluated and the results were shown in the Table 7e below.

GR [3] = target: T1, GR; assay: GR luciferase reporter assay in HEK293/GRLuc/MSR1 cells; format: cell-based; conditions: Table 8b, free payloads; for S/N: HEK293/GRLuc/MSR1; for EC50: HEK293/GRLuc/MSR1, 48 hours
Method: as §1, §2, §3, §4

[4] = Lysosomal cleavage assay (payload release); format: in vitro ADME, human; conditions: 0 hours, 1 μM payload-equivalent ncADC, 37° C.; for Released Payload Precursor Concentration: precursor PIII-1 released; for Released Payload Concentration: steroid III released
Method: To confirm the release of payloads linked to antibodies via hemiaminal ether linkers, a lysosomal cleavage assay was performed. […] 200 μL of resulting mixture with 1 μM payload-equivalent ncADC was incubated at 37° C. with gentle shaking over a 24-hour period. A 20 μL aliquot was taken at 0, 0.5, 1.0, 2.0, 4.0, 8.0 and 24 hours and immediately transferred to a plate containing 80 μL cold acetonitrile to deactivate the lysosomal enzymes and precipitate the proteins. After centrifugation at 2,000 rpm for 5 minutes, aliquots of supernatant were diluted with an equal volume of water for LC-MS analysis to determine the amount of precursor and payload released from ncADC.

[5] = target: T2, human macrophage scavenger receptor 1 (MSR1) (human, UniProt P21757 1-451); assay: cell-based or functional assay
T2 sequence (looked up): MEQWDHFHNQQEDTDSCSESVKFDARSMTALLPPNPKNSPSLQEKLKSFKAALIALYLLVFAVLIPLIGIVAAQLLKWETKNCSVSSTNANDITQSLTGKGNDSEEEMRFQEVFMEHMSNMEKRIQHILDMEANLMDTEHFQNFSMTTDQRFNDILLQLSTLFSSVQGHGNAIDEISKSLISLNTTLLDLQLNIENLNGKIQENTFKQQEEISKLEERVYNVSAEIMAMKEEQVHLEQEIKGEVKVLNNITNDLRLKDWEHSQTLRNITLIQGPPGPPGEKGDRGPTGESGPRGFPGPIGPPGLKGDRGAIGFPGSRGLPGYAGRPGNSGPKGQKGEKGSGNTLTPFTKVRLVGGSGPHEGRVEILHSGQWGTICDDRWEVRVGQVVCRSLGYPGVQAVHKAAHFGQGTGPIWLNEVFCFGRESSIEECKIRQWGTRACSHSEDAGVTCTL

[6] = Table 8, ncADCs, highest RLU / RLU of untreated wells

For `CCCC1O[C@@H]2C[C@H]3[C@@H]4C[C@H](F)C5=CC(=O)C=C[C@]5(C)[C@@]4(F)[C@@H](O)C[C@]3(C)[C@]2(C(=O)CO)O1` (stereo partly shown) [III], the S/N (GR [1]; Table 8b, free payloads) was 34.4, the EC50 (GR [1]; Table 8b, free payloads) was 0.0197 nM and the “Percent Remaining (%)” value ([2]; 0 min) was 100.00%. The “Percent Remaining (%)” value ([2]; 5 min) was 16.15%, the “Percent Remaining (%)” value ([2]; 15 min) was 0.75% and the “Percent Remaining (%)” value ([2]; 30 min) was 0.76%. The “Percent Remaining (%)” value ([2]; 45 min) was 0.14%, the CLint scaled [2] was 811 mL/min/kg and the half-life [2] was 2.14 min. The S/N (GR [3]) was 156.7 and the EC50 (GR [3]) was 0.0242 nM.

In the case of `CCCC1O[C@@H]2C[C@H]3[C@@H]4C[C@H](F)C5=CC(=O)C=C[C@]5(C)[C@@]4(F)[C@@H](O)C[C@]3(C)[C@]2(C(=O)COCNC(=O)CN)O1` (stereo partly drawn) [PIII-1, 2-Amino-N-({2-[(1S,2S,4R,8S,9S,11S,12R,13S,19S)-12,19-difluoro-11-hydroxy-9,13-dimethyl-16-oxo-6-propyl-5,7-dioxapentacyclo[10.8.0.0^2,9.0^4,8.0^13,18]icosa-14,17-dien-8-yl]-2-oxoethoxy}methyl)acetamide], the S/N (GR [1]; Table 8b, free payloads) is reported as 32.1, the EC50 (GR [1]; Table 8b, free payloads) is reported as 0.0465 nM and the “Percent Remaining (%)” value ([2]; 0 min) is reported as 100.00%. The “Percent Remaining (%)” value ([2]; 5 min) was 59.35%, the “Percent Remaining (%)” value ([2]; 15 min) was 23.58% and the “Percent Remaining (%)” value ([2]; 30 min) was 6.83%. The “Percent Remaining (%)” value ([2]; 45 min) was 2.68%, the CLint scaled [2] was 223 mL/min/kg and the half-life [2] was 7.8 min. It also gave a S/N (GR [3]) of 179.3 and an EC50 (GR [3]) of 0.0545 nM.

B1: H1H21234N-N297Q-L1-PIII-1 (antibody, V domains shown)
VH: QVQLQESGPGLVKPSETLSLTCTVTGGSISRNYWSWIRQPPGKGLEWIGYIYYSGSIDYNPSLKSRVTISVDTSKNQFSLKLSSMTAADTAVYYCARDRWNWKYGMDVWGQGTTVIVSS
VL: EIVLTQSPGTLSLSPGERATLSCRASQTVRNNYLAWYHQKPGQAPRLLIYGASSRATGIPDRFSGSGSGTDFTLTISRLEPEDFTVYYCHQYGNSPWTFGQGTKMEIKR
modifications: heavy-chain constant region (not part of this entry): N297Q (EU); linker-payload L1-PIII-1 (DIBAC-suc-PEG4-vcPAB-PIII-1, payload 6,11-2F-budesonide III) clicked onto azido-PEG3-amine on glutamines; DAR 4
In the case of B1, the “Released Payload Precursor Concentration” value [4] is reported as 0 nM, the “Released Payload Concentration” value [4] is reported as 0 nM and the EC50 (GR [1]; Table 8, ncADCs) is reported as 50.6 nM. For the same molecule, the S/N (GR [1]; [6]) was 16.4, the “EC50, GR luciferase reporter activity in HEK293/GRLuc/MSR1 cells” value [5] was 0.0973 nM and the “S/N (highest RLU / RLU in untreated wells), HEK293/GRLuc/MSR1 cells” value [5] was 143.

B2: H1H21234N-N297Q-L3-PIII-1 (antibody, V domains shown)
VH: B1 VH
VL: B1 VL
modifications: heavy-chain constant region (not part of this entry): N297Q (EU); linker-payload L3-PIII-1 (DIBAC-suc-PEG4-GGF-PIII-1) clicked onto azido-PEG3-amine on glutamines; DAR 4
With B2 the “Released Payload Precursor Concentration” value [4] was 0 nM, the “Released Payload Concentration” value [4] was 10.1 nM and the EC50 (GR [1]; Table 8, ncADCs) was 47.6 nM. The S/N (GR [1]; [6]) was 17.5, the “EC50, GR luciferase reporter activity in HEK293/GRLuc/MSR1 cells” value [5] was 0.0854 nM and the “S/N (highest RLU / RLU in untreated wells), HEK293/GRLuc/MSR1 cells” value [5] was 269.
